From patent publication US20070289889A1, “Biomarkers For The Prediction Of Drug-In Duced Diarrhea” (NOVARTIS AG, priority 2003, published 2007)
Where “and” joins values, the source holds several entries; their conditions need not be identical. Equal entries are not always repeated.

Legend:
[1] = test system: adult patients with advanced solid tumours; experiment: Phase I open-label dose-escalation trial, maximum tolerated dose and diarrhoea; assay type: in vivo, human
Protocol: A group of eleven genes were identified as having statistically significant differences in expression levels when comparing the test samples to their respective baseline samples. […] These genes were identified following a […] dose-finding clinical trial, which was undertaken in which epothilone B was administered weekly to adult patients with advanced solid tumours. A clinical pharmacogenetics (CPG) analysis identified biomarker candidates for the incidence of epothilone B-induced diarrhoea. The analysis also identified genomic-based factors (such as mRNA expression profiles) that are associated with the incidence of epothilone B-induced diarrhoea.
The maximum tolerated dose (MTD) for a compound is determined using methods and materials known in the medical and pharmacological arts, for example through dose-escalation experiments. One or more patients is first treated with a low dose of the compound, typically 10% of the dose anticipated to be therapeutic based on results of in vitro cell culture experiments. The patients are observed for a period of time to determine the occurrence of toxicity. Toxicity is typically evidenced as the observation of one or more of the following symptoms: vomiting, diarrhoea, peripheral neuropathy, ataxia, neutropaenia, or elevation of liver enzymes. If no toxicity is observed, the dose is increased 2-fold, and the patients are again observed for evidence of toxicity. This cycle is repeated until a dose producing evidence of toxicity is reached. The dose immediately preceding the onset of unacceptable toxicity is taken as the […]. A determination of the MTD for epothilone B is provided above.
Clinical trial design. This clinical trial was an open-label, dose-escalation trial using a standard Phase I protocol design (3+3 design) of enrolling three-six patients per cohort to establish the maximum tolerated dose. Peripheral whole blood was collected from patients that consented to clinical pharmacogenetics analysis. Two clinical pharmacogenetics blood samples were scheduled: baseline and on Day 2 of Week 1 at hour 24. The core treatment period consisted of two nine-week cycles of weekly intravenous administrations of epothilone B as tolerated by haematologic and other toxicities. The doses of epothilone B used in this trial were 0.3, 0.5, 0.75, 1.1, 1.85, 2.5, 3.0 and 3.6 mg/m^2.
Clinical pharmacogenetics subjects used for the analysis. Epothilone B was administered to subjects as a single intravenous infusion over five minutes in a maximum volume of 20 ml either every week for up to six weeks followed by a three-week wash-out period, or every week for three weeks followed by one week without treatment. The 2.5 mg/m^2 treatment was considered to be the maximum tolerated dose (MTD). Therefore, twenty clinical pharmacogenetics participants who were in the 2.5, 3.0 and 3.6 mg/m^2 treatment groups and whose arrays met the quality standards were used. The rationale behind this decision was based on the assumption that those genes whose expression was affected by the 2.5 mg/m^2 treatment would be more pronounced in 3.0 and 3.6 mg/m^2 treatment groups.
(§1) Because there were only three subjects who experienced grade 3 diarrhoea, all fifteen subjects who experienced any grade of diarrhoea were grouped together to strengthen the statistical power of this analysis.

white blood cells [2] = experiment: mRNA expression profiles of white blood cells after treatment, no diarrhoea vs. diarrhoea subjects; assay type: in vivo, human; details: treated; for Signal Value 297_g_at (Tubulin, beta) / Signal Value 477_at (IRF5) / Signal Value 1274_s_at (CDC34) / Signal Value 33336_at (SLC4A1) / Signal Value 33759_at (BPGM) / Signal Value 37285_at (ALAS2) / Signal Value 37405_at (SELENBP1) / Signal Value 39436_at (BNIP3L): average of arrays
Protocol: (§2) Samples. Forty-three out of the ninety-one subjects who enrolled in the clinical trial consented to clinical pharmacogenetics analysis. For each subject, two clinical pharmacogenetics blood samples were scheduled: baseline and on Day 2 of Week 1 at hour 24. White blood cell (WBC) pellets were ficoll-hypaque separated from the whole blood by the investigator, frozen at −80° C. mRNA was extracted and profiled on the Affymetrix U95A GeneChip® platform.
(§3) mRNA expression profiling analysis. Any array with greater than 20% of genes called present by the Affymetrix MAS5 algorithm was a candidate for the analyses described herein. Affymetrix, “New statistical algorithms for monitoring gene expression on GeneChip® probe arrays.” Affymetrix Technical Notes. (2001). […] Forty-two out of the possible eighty-six arrays met the quality standards needed for analysis.
(§4) Statistical analysis. Fisher's Exact tests were performed to compare the demographics of the clinical pharmacogenetics participants to the overall trial population. An analysis of variance (ANOVA) was used to determine whether mRNA gene expression patterns correlated to either treatment status (baseline vs. treated), to experiencing diarrhoea (no diarrhoea vs. diarrhoea) or to whether specific blood cell type levels correlated to experiencing diarrhoea. All statistical analyses were performed using the SigmaStat 2.03 and SAS 8.02 programs.
as §1
A comparison of the mRNA expression profiles of white blood cells identified eight genes with statistically significant differences between the two groups of subjects 24 hours after epothilone B administration. See, TABLE 3.
Compare, TABLE 8 and TABLE 13.

[3] = test system: drug-sensitive and multidrug-resistant cells overexpressing P-glycoprotein; details: cited from earlier work
[4] = Rothermel et al. 2003; cited from earlier work
white blood cells [5] = experiment: mRNA expression profiling (Affymetrix U95A) of white blood cells, baseline vs. treated; assay type: in vivo, human
Protocol: as §2, §3, §4
Analysis of baseline vs. treated mRNA profiles by treatment group. To determine if gene expression in white blood cells was altered by epothilone B at 24 hours after treatment, a comparison between baseline and treated expression profiles was performed.

[6] = Blood cell, haematocrit and haemoglobin levels after epothilone B treatment by diarrhoea status; assay type: in vivo, human; details: for Basophils / Eosinophils / Haematocrit / Haemoglobin / Lymphocytes / Monocytes / Neutrophils / Platelets / White Blood Cells: CPG subjects after a single dose, mean ± SEM
Protocol: as §4
Next, the levels of each blood cell type were compared between the two groups of subjects. Because these values were not determined at the blood draw timepoint, values for the second blood draw timepoint after baseline in cycle 1, corresponding to the first blood draw after the first epothilone B treatment (usually 24 hours after the […]) were used for this comparison. […] See, TABLE 4 and FIGS. 1-2.
Because females generally have lower levels of haematocrit and haemoglobin compared to males, a similar analysis was done by sex. As shown in TABLE 5 and FIGS. 1-2, similar trends in haematocrit and haemoglobin levels were identified for each sex. To determine if these associations exist for the entire trial subject population, the haematocrit and haemoglobin levels for all subjects at the second blood draw after baseline in cycle 1 were investigated.

[7] = CPG subjects, grade 1 diarrhoea
[8] = of twenty CPG subjects, 2.5, 3.0 and 3.6 mg/m^2, irregardless of dose
[9] = 24 hours, any grade of diarrhoea
[10] = 3.6 mg/m^2, 24 hours after treatment
[11] = CPG Females after a single dose, Diarrhoea (n = 10)
[12] = CPG Females after a single dose, No Diarrhoea (n = 4)
[13] = CPG Males after a single dose, Diarrhoea (n = 5)
[14] = CPG Males after a single dose, No Diarrhoea (n = 1)
[15] = all Females after treatment, Diarrhoea (n = 42)
[16] = all Females after treatment, No Diarrhoea (n = 22)
[17] = all Males after treatment, Diarrhoea (n = 16)
[18] = all Males after treatment, No Diarrhoea (n = 11)
[19] = all subjects after treatment, Diarrhoea any grade (n = 58)
[20] = all subjects after treatment, No Diarrhoea (n = 33)

## C/C(=C\c1csc(C)n1)[C@@H]1C[C@@H]2O[C@]2(C)CCC[C@H](C)[C@H](O)[C@@H](C)C(=O)C(C)(C)[C@@H](O)CC(=O)O1 [epothilone B, Epothilone B]
[1]; CPG subjects
  mean time of experiencing the first episode of diarrhoea after receiving dose: 37 days
[1]; [7]
  maximum time to first episode of diarrhoea: 304 days
  minimum time to first episode of diarrhoea: 6 days
[1]; clinical pharmacogenetics (CPG) subjects
  mean onset of diarrhoea after the scheduled blood draw: 371 ± 18 days
[1]; of twenty CPG subjects, 2.5, 3.0 and 3.6 mg/m^2
  subjects who experienced grade 3 diarrhoea: three
[1]; [8]
  subjects who did not experience diarrhoea: five
  subjects who experienced any grade of diarrhoea: fifteen
[1]; weekly intravenous infusion over five minutes
  maximum tolerated dose (MTD): 2.5 mg/m^2
White blood cells [2]; [9]
  Fold Change [diarrhoea/no diarrhoea] ALAS2 (37285_at) mRNA: −9.6
  Fold Change [diarrhoea/no diarrhoea] BNIP3L (39436_at) mRNA: −2.8
  Fold Change [diarrhoea/no diarrhoea] BPGM (33759_at) mRNA: −4.9
  Fold Change [diarrhoea/no diarrhoea] CDC34 (1274_s_at) mRNA: −2.2
  Fold Change [diarrhoea/no diarrhoea] IRF5 (477_at) mRNA: 2.9
  Fold Change [diarrhoea/no diarrhoea] SELENBP1 (37405_at) mRNA: −11.3
  Fold Change [diarrhoea/no diarrhoea] SLC4A1 (33336_at) mRNA: −15.3
  Fold Change [diarrhoea/no diarrhoea] Tubulin, beta (297_g_at) mRNA: −3.9
White blood cells [2]; Diarrhoea (any grade) subjects
  Signal Value 297_g_at (Tubulin, beta): 59
  Signal Value 477_at (IRF5): 278
  Signal Value 1274_s_at (CDC34): 128
  Signal Value 33336_at (SLC4A1): 93
  Signal Value 33759_at (BPGM): 70
  Signal Value 37285_at (ALAS2): 448
  Signal Value 37405_at (SELENBP1): 106
  Signal Value 39436_at (BNIP3L): 1476
White blood cells [2]; No Diarrhoea subjects
  Signal Value 297_g_at (Tubulin, beta): 232
  Signal Value 477_at (IRF5): 97
  Signal Value 1274_s_at (CDC34): 278
  Signal Value 33336_at (SLC4A1): 1421 and 1422
  Signal Value 33759_at (BPGM): 344
  Signal Value 37285_at (ALAS2): 4292
  Signal Value 37405_at (SELENBP1): 1200
  Signal Value 39436_at (BNIP3L): 4200
White blood cells [2]; grade 3 diarrhoea
  Fold Change [diarrhoea/no diarrhoea] 297_g_at (Tubulin, beta): −3.0
  Fold Change [diarrhoea/no diarrhoea] 477_at (IRF5): ^f2.7
  Fold Change [diarrhoea/no diarrhoea] 1274_s_at (CDC34): −2.3
  Fold Change [diarrhoea/no diarrhoea] 33336_at (SLC4A1): −15.9
  Fold Change [diarrhoea/no diarrhoea] 33759_at (BPGM): ^f−6.7
  Fold Change [diarrhoea/no diarrhoea] 37285_at (ALAS2): −10.0
  Fold Change [diarrhoea/no diarrhoea] 37405_at (SELENBP1): ^f−10.3
  Fold Change [diarrhoea/no diarrhoea] 39436_at (BNIP3L): −2.8
White blood cells [2]; grade 3 diarrhoea subjects
  Signal Value 297_g_at (Tubulin, beta): 77
  Signal Value 477_at (IRF5): 264
  Signal Value 1274_s_at (CDC34): 123
  Signal Value 33336_at (SLC4A1): 90
  Signal Value 33759_at (BPGM): 51
  Signal Value 37285_at (ALAS2): 428
  Signal Value 37405_at (SELENBP1): 113
  Signal Value 39436_at (BNIP3L): 1489
[3]
  cytotoxicity, drug-sensitive vs. multidrug-resistant cells: equally cytotoxic
[4]
  dose-limiting toxicity (diarrhoea): dose-limiting toxicity
  myelosuppression: no myelosuppression
White blood cells [5]; [10]
  Fold Change [treated/baseline] DAPK1 (40049_at) mRNA: 2.1
  Fold Change [treated/baseline] DR1 (32621_at) mRNA: 1.9
  Fold Change [treated/baseline] JAK1 (1457_at) mRNA: 1.7
  Fold Change [treated/baseline] K-ALPHA-1 (32272_at) mRNA: 1.7
  Fold Change [treated/baseline] MAP4K2 (187_at) mRNA: −1.7
  Fold Change [treated/baseline] RAP1A (1848_at) mRNA: 1.9
  Fold Change [treated/baseline] SURF2 (38210_at) mRNA: 2.4
  Fold Change [treated/baseline] TCFL4 (32578_at) mRNA: −1.6
  Fold Change [treated/baseline] TM9SF1 (38835_at) mRNA: 2.2
  Fold Change [treated/baseline] ZFP36 (40448_at) mRNA: 1.6
  Fold Change [treated/baseline] nuclear transcription factor Y, alpha (33297_at) mRNA: −1.6
White blood cells [5]; 3.6 mg/m^2 treatment, 24 hours
  number of genes with statistically significant changes in expression, treated vs. baseline: eleven
White blood cells [5]; 2.5 and 3.0 mg/m^2 treatments, 24 hours
  genes with statistically significant expression differences, treated vs. baseline: No genes with statistically significant differences were identified
White blood cells [5]; all treated samples combined, 24 hours after treatment
  genes with statistically significant expression differences, treated vs. baseline: no genes with statistically significant differences were identified
[6]; [11]
  HCT: 35.63 ± 0.01%
  HGB: 12.01 ± 0.35 g/dL
[6]; [12]
  HCT: 30.63 ± 0.20%
  HGB: 10.40 ± 0.20 g/dL
[6]; [13]
  HCT: 38.30 ± 1.77%
  HGB: 13.18 ± 0.62 g/dL
[6]; [14]
  HCT: 26.30%
  HGB: 8.70 g/dL
[6]; Diarrhoea (n = 15)
  Basophils: 0.57 ± 0.12%
  Eosinophils: 2.74 ± 0.45%
  Haematocrit: 36.11 ± 0.91%
  Haemoglobin: 12.40 ± 0.33 g/dL
  Lymphocytes: 19.92 ± 1.92%
  Monocytes: 7.88 ± 0.71%
  Neutrophils: 68.81 ± 2.38%
  Platelets: 259.20 ± 23.25 THOU/MM^3
  White Blood Cells: 5.60 ± 0.44 THOU/MM^3
[6]; No Diarrhoea (n = 5)
  Basophils: 0.64 ± 0.22%
  Eosinophils: 3.42 ± 0.73%
  Haematocrit: 29.76 ± 0.87%
  Haemoglobin: 10.06 ± 0.84 g/dL
  Lymphocytes: 14.50 ± 0.74%
  Monocytes: 8.10 ± 0.74%
  Neutrophils: 73.60 ± 2.05%
  Platelets: 334.40 ± 54.80 THOU/MM^3
  White Blood Cells: 5.92 ± 0.87 THOU/MM^3
[6]; [15]
  HCT: 34.34 ± 0.69%
  HGB: 11.56 ± 0.25 g/dL
[6]; [16]
  HCT: 33.17 ± 0.94%
  HGB: 11.13 ± 0.30 g/dL
[6]; [17]
  HCT: 32.84 ± 1.50%
  HGB: 12.46 ± 0.44 g/dL
[6]; [18]
  HCT: 37.48 ± 1.39%
  HGB: 11.06 ± 0.46 g/dL
[6]; [19]
  HCT: 35.21 ± 0.67%
  HGB: 11.81 ± 0.22 g/dL
[6]; [20]
  HCT: 33.06 ± 0.77%
  HGB: 11.11 ± 0.25 g/dL
